Reference: patent US20090012119A1, “FLUOROALKYLPYRROLIDINE DERIVATIVE” (DAIICHI SANKYO COMPANY LIMITED, priority 2005, published 2009)
Values after ≈ are worked out from the molar mass of the structure shown.

Key:
Ps. aeruginosa, 32121 = assay: Antibacterial activity (MIC), standard method of Japanese Society of Chemotherapy; type: cell-based; conditions: Pseudomonas aeruginosa
Description: (§1) MIC value is also shown for levofloxacin (LVFX), ciprofloxacin (CPFX), and Comparative Compound (compound of Example 1 in the Patent Document 1) for comparison with the MIC value of the compound of the present invention.

Str. pyogenes, G-36 = assay: as above; type: cell-based; conditions: Streptococcus pyogenes, G36
Description: as §1

E. coli, NIHJ = assay: as above; type: cell-based; conditions: Escherichia coli
Description: as §1

Ps. aeruginosa, 32104 = assay: as above; type: cell-based; conditions: Pseudomonas aeruginosa
Description: as §1

[1] = test system: Str. faecalis, ATCC-19433; assay: as above; type: cell-based; conditions: Enterococcus faecalis, ATCC19433
Description: as §1

S. aureus, 209P = assay: as above; type: cell-based; conditions: Staphylococcus aureus
Description: as §1

Pr. vulgaris, 08601 = assay: as above; type: cell-based; conditions: Proteus vulgaris
Description: as §1

S. pneumoniae, J24 = assay: as above; type: cell-based; conditions: Streptococcus pneumoniae, J24: penicillin resistant pneumococcus (moderate resistance)
Description: as §1

S. flexneri, 2A 5503 = assay: as above; type: cell-based; conditions: Shigella flexneri, 2A5503
Description: as §1

Pr. mirabilis, IFO-3849 = assay: as above; type: cell-based; conditions: Proteus mirabilis, IFO3849
Description: as §1

S. aureus, 870307 = assay: as above; type: cell-based; conditions: 870307: levofloxacin-resistant methicillin-resistant Staphylococcus aureus
Description: as §1

S. maltophilia, IID-1275 = assay: as above; type: cell-based; conditions: Stenotrophomonas maltophilia, IID1275
Description: as §1

S. epidermidis, 56500 = assay: as above; type: cell-based; conditions: Staphylococcus epidermidis
Description: as §1

Ser. marcescens, 10100 = assay: as above; type: cell-based; conditions: Serratia marcescens
Description: as §1

[2] = test system: 6 week old male Slc:ddY mice; assay: Single dose toxicity test, intravenous injection; type: in vivo
Experimental: The compounds of the present invention were evaluated for their toxicity in a single dose toxicity test by administering the compounds to 6 week old male Slc:ddY mice. The compound was diluted with 0.1 mol/l NaOH/physiological saline, and filtered through Millex GS filter (0.22 μm) for sterilization. The compound was administered at a rate of 10 ml/kg and 0.2 ml/min in a single dose by intravenous injection. The compound of Example 1 in the Patent Document 1 was used for the Comparative Compound as in the case of Test Example 1.

Row | SMILES | MIC (Ps. aeruginosa, 32121) [µg/mL] | MIC (Str. pyogenes, G-36) [µg/mL] | MIC (E. coli, NIHJ) [µg/mL] | MIC (Ps. aeruginosa, 32104) [µg/mL] | MIC [1] [µg/mL] | MIC (S. aureus, 209P) [µg/mL] | MIC (Pr. vulgaris, 08601) [µg/mL] | MIC (S. pneumoniae, J24) [µg/mL] | MIC (S. flexneri, 2A 5503) [µg/mL] | MIC (Pr. mirabilis, IFO-3849) [µg/mL] | MIC (S. aureus, 870307) [µg/mL] | MIC (S. maltophilia, IID-1275) [µg/mL] | MIC (S. epidermidis, 56500) [µg/mL] | MIC (Ser. marcescens, 10100) [µg/mL] | Number of dead mice/Total ([2]; Dose 100 mg/kg) | Number of dead mice/Total ([2]; Dose 150 mg/kg) | melting point [°C]
1 | O=C(O)c1cn(C2CC2)c2cc(N3CCNCC3)c(F)cc2c1=O [CPFX, ciprofloxacin, reference compound] | 0.025 (≈ 0.0754 µM) | 1.56 (≈ 4.71 µM) | ≤ 0.003 | 0.05 (≈ 0.151 µM) | 0.78 (≈ 2.35 µM) | 0.1 (≈ 0.302 µM) | ≤ 0.003 | 0.1 (≈ 0.302 µM) | 0.006 (≈ 0.0181 µM) | 0.012 (≈ 0.0362 µM) | > 6.25 | 0.78 (≈ 2.35 µM) | 0.2 (≈ 0.604 µM) | 0.025 (≈ 0.0754 µM) | – | – | –
2 | COc1c(N2C[C@H](CF)[C@H](N)C2)c(F)cc2c(=O)c(C(=O)O)cn(C3C[C@@H]3F)c12 (stereo partly shown) [Comparative Compound, reference compound] | 0.05 (≈ 0.122 µM) | 0.1 (≈ 0.243 µM) | ≤ 0.003 | 0.2 (≈ 0.486 µM) | 0.1 (≈ 0.243 µM) | 0.012 (≈ 0.0292 µM) | 0.012 (≈ 0.0292 µM) | 0.025 (≈ 0.0608 µM) | 0.006 (≈ 0.0146 µM) | 0.025 (≈ 0.0608 µM) | 0.2 (≈ 0.486 µM) | 0.2 (≈ 0.486 µM) | 0.05 (≈ 0.122 µM) | 0.05 (≈ 0.122 µM) | 1/5 | 2/3 | –
3 | Cc1c(N2C[C@H](CF)[C@H](N)C2)c(F)cc2c(=O)c(C(=O)O)cn(C3CC3)c12 [Compound No. 1, 7-[(3S,4S)-3-amino-4-fluoromethyl-1-pyrrolidinyl]-1-cyclopropyl-6-fluoro-1,4-dihydro-8-methyl-4-oxoquinoline-3-carboxylic acid] | 0.025 (≈ 0.0662 µM) | 0.1 (≈ 0.265 µM) | ≤ 0.003 | 0.05 (≈ 0.132 µM) | 0.05 (≈ 0.132 µM) | 0.012 (≈ 0.0318 µM) | ≤ 0.003 | 0.025 (≈ 0.0662 µM) | ≤ 0.003 | 0.012 (≈ 0.0318 µM) | 0.2 (≈ 0.53 µM) | 0.1 (≈ 0.265 µM) | 0.025 (≈ 0.0662 µM) | 0.025 (≈ 0.0662 µM) | – | – | 160 to 165
4 | Cc1c(N2C[C@H](CF)[C@H](N)C2)ccc2c(=O)c(C(=O)O)cn(C3CC3)c12 [Compound No. 2, 7-[(3S,4S)-3-amino-4-fluoromethyl-1-pyrrolidinyl]-1-cyclopropyl-1,4-dihydro-8-methyl-4-oxoquinoline-3-carboxylic acid] | 0.025 (≈ 0.0696 µM) | 0.2 (≈ 0.556 µM) | ≤ 0.003 | 0.1 (≈ 0.278 µM) | 0.2 (≈ 0.556 µM) | 0.025 (≈ 0.0696 µM) | 0.006 (≈ 0.0167 µM) | 0.1 (≈ 0.278 µM) | 0.006 (≈ 0.0167 µM) | 0.05 (≈ 0.139 µM) | 0.78 (≈ 2.17 µM) | 0.2 (≈ 0.556 µM) | 0.1 (≈ 0.278 µM) | 0.05 (≈ 0.139 µM) | – | – | 203 to 205
5 | Cc1c(N2C[C@H](CF)[C@H](N)C2)c(F)cc2c(=O)c(C(=O)O)cn([C@@H]3C[C@@H]3F)c12 [Compound No. 3, 7-[(3S,4S)-3-amino-4-fluoromethyl-1-pyrrolidinyl]-6-fluoro-1-[(2S,1R)-2-fluorocyclopropyl]-1,4-dihydro-8-methyl-4-oxoquinoline-3-carboxylic acid] | 0.025 (≈ 0.0632 µM) | 0.05 (≈ 0.126 µM) | 0.006 (≈ 0.0152 µM) | 0.05 (≈ 0.126 µM) | 0.1 (≈ 0.253 µM) | 0.006 (≈ 0.0152 µM) | ≤ 0.003 | 0.025 (≈ 0.0632 µM) | ≤ 0.003 | 0.006 (≈ 0.0152 µM) | 0.39 (≈ 0.986 µM) | 0.1 (≈ 0.253 µM) | 0.025 (≈ 0.0632 µM) | 0.025 (≈ 0.0632 µM) | 0/5 | 0/3♭ | –
6 | CN[C@@H]1CN(c2c(F)cc3c(=O)c(C(=O)O)cn([C@@H]4C[C@@H]4F)c3c2C)C[C@@H]1CF [Compound No. 4, 7-[(3S,4S)-3-fluoromethyl-4-methylaminopyrrolidine-1-yl]-6-fluoro-1-[(2S,1R)-2-fluorocyclopropyl]-1,4-dihydro-8-methyl-4-oxoquinoline-3-carboxylic acid] | 0.05 (≈ 0.122 µM) | 0.1 (≈ 0.244 µM) | ≤ 0.003 | 0.1 (≈ 0.244 µM) | 0.1 (≈ 0.244 µM) | 0.012 (≈ 0.0293 µM) | 0.006 (≈ 0.0147 µM) | 0.05 (≈ 0.122 µM) | 0.006 (≈ 0.0147 µM) | 0.025 (≈ 0.0611 µM) | 0.39 (≈ 0.953 µM) | 0.1 (≈ 0.244 µM) | 0.05 (≈ 0.122 µM) | 0.05 (≈ 0.122 µM) | 0/5 | 1/2 | –
7 | CN[C@@H]1CN(c2c(F)cc3c(=O)c(C(=O)O)cn(C4CC4)c3c2C)C[C@@H]1CF [Compound No. 5, 1-cyclopropyl-6-fluoro-7-[(3S,4S)-3-fluoromethyl-4-methylaminopyrrolidine-1-yl]-8-methyl-1,4-dihydro-4-oxoquinoline-3-carboxylic acid] | 0.05 (≈ 0.128 µM) | 0.1 (≈ 0.255 µM) | ≤ 0.003 | 0.2 (≈ 0.511 µM) | 0.1 (≈ 0.255 µM) | 0.012 (≈ 0.0307 µM) | 0.006 (≈ 0.0153 µM) | 0.05 (≈ 0.128 µM) | ≤ 0.003 | 0.025 (≈ 0.0639 µM) | 0.39 (≈ 0.996 µM) | 0.05 (≈ 0.128 µM) | 0.05 (≈ 0.128 µM) | 0.05 (≈ 0.128 µM) | – | – | 156 to 158
8 | Cc1c(N2C[C@@H](N)[C@@H](C(F)F)C2)c(F)cc2c(=O)c(C(=O)O)cn([C@@H]3C[C@@H]3F)c12 [Compound No. 6, 7-[(3S,4S)-3-amino-4-difluoromethylpyrrolidine-1-yl]-6-fluoro-1-[(1R,2S)-2-fluorocyclopropyl]-8-methyl-1,4-dihydro-4-oxoquinoline-3-carboxylic acid] | 0.05 (≈ 0.121 µM) | 0.05 (≈ 0.121 µM) | ≤ 0.003 | 0.2 (≈ 0.484 µM) | 0.1 (≈ 0.242 µM) | 0.012 (≈ 0.029 µM) | 0.006 (≈ 0.0145 µM) | 0.05 (≈ 0.121 µM) | ≤ 0.003 | 0.012 (≈ 0.029 µM) | 0.2 (≈ 0.484 µM) | 0.05 (≈ 0.121 µM) | 0.025 (≈ 0.0605 µM) | 0.05 (≈ 0.121 µM) | – | – | 214 to 216
9 | C[C@H]1COc2c(N3CCN(C)CC3)c(F)cc3c(=O)c(C(=O)O)cn1c23 [LVFX, levofloxacin, reference compound] | 0.1 (≈ 0.277 µM) | 0.78 (≈ 2.16 µM) | 0.012 (≈ 0.0332 µM) | 0.2 (≈ 0.553 µM) | 0.78 (≈ 2.16 µM) | 0.2 (≈ 0.553 µM) | 0.012 (≈ 0.0332 µM) | 0.78 (≈ 2.16 µM) | 0.025 (≈ 0.0692 µM) | 0.05 (≈ 0.138 µM) | > 6.25 | 0.39 (≈ 1.08 µM) | 0.39 (≈ 1.08 µM) | 0.1 (≈ 0.277 µM) | – | – | –
